target: wild-type human cardiac sodium channel, hNav1.5 (late sodium current) (Homo sapiens, UniProt Q14524); assay: Late INa screening assay (PatchXpress whole cell patch clamp); type: cell-based; settings: 1 μM test compound; HEK293 cells expressing hNav1.5; late INa generated with 10 μM Tefluthrin (some experiments 50 nM ATX II)
Description: The late sodium current (Late INa) and peak sodium current (Peak INa) assays were performed on an automated electrophysiology platform, PatchXpress 7000A (MDS Analytical Technologies, Sunnyvale, Calif.), which uses the whole cell patch clamp technique to measure currents through the cell membrane of up to 16 cells at a time. The assay used an HEK293 (human embryonic kidney) cell line heterologously expressing the wild-type human cardiac sodium channel, hNav1.5, purchased from Millipore (Billerica, Mass.). No beta subunits were coexpressed with the Na channel alpha subunit. Cells were maintained with standard tissue culture procedures and stable channel expression was maintained with 400 μg/ml Geneticin in the culture medium. Cells isolated for use on PatchXpress were incubated for 5 minutes in Versene 1× and then for 2 minutes in 0.0125% Trypsin-EDTA (both at 37° C.) to ensure that 80-90% of the cells are single and not part of a cell cluster. Experiments were carried out at 24-27° C.
For both the Late INa and Peak INa assays, series resistance compensation was set to 50% and whole-cell compensation was performed automatically. Currents were low-pass filtered at 10 kHz and digitized at 31.25 kHz. Currents through open sodium channels were automatically recorded and stored in the DataXpress2 database (MDS Analytical Technologies, Sunnyvale, Calif.). Analysis was performed using DataXpress2 analysis software and data are compiled in Excel.
Compound stocks were routinely made in glass vials to 10 mM in dimethyl sulfoxide (DMSO). In some cases, when compounds were not soluble in DMSO, they were made in 100% ethanol. Stocks were sonicated as necessary. The extracellular solution for screening Late INa was composed of: 140 mM NaCl, 4 mM KCl, 1.8 mM CaCl2, 0.75 mM MgCl2, and 5 mM HEPES with pH adjusted to 7.4 using NaOH. The extracellular solution for screening Peak INa was composed of: 20 mM NaCl, 120 mM N-methyl-D glucamine, 4 mM KCl, 1.8 mM CaCl2, 0.75 mM MgCl2, and 5 mM HEPES with pH adjusted to 7.4 using HCl. The intracellular solution used to perfuse the inside of the cells for both the Late INa and Peak INa assays contains: 120 mM CsF, 20 mM CsCl, 5 mM EGTA, 5 mM HEPES and pH adjusted to 7.4 with CsOH. Compounds were diluted in extracellular solution to 10 μM in glass vials and then transferred to glass well plates before robotic addition to the cells. The 0Na extracellular solution used at the end of each experiment for the Late INa and Peak INa assays to measure baseline current contained: 140 mM N-methyl-D-glucamine; 4 mM KCl; 1.8 mM CaCl2; 0.75 mM MgCl2; 5 mM HEPES and pH was adjusted to 7.4 with HCl.
For the Late INa assay, sodium channels were activated every 10 seconds (0.1 Hz) by depolarizing the cell membrane to −20 mV for 250 milliseconds (ms) from a holding potential of −120 mV. In response to a −20 mV voltage step, typical Nav1.5 sodium currents activated rapidly to a peak negative current and then inactivated nearly completely within 3-4 ms.
All compounds were tested to determine their activity in blocking the late sodium current. Late INa current is generated by adding 10 μM Tefluthrin (pyrethroid) to the extracellular solution while recording Na currents. For some experiments, 50 nM ATX II (sea anemone toxin), another late INa activator, was used to generate the late component. Both activators generate late components that are large enough that block of the late component by compounds can be measured easily. For the purposes of the screening, late INa is defined as the mean current between 225 ms and 250 ms after stepping to −20 mV to activate Na channels. After establishing the whole cell recording configuration, late INa activators were added to each well 4 times over a 16-17 minute period so that the late component of the Na current reached a stable value. Compounds were then added (typically at 10 μM), in the presence of late INa activator, with 3 additions over the course of 7 or 8 minutes. […]

wild-type human cardiac sodium channel, hNav1.5 (late sodium current), sequence (Q14524 whole entry): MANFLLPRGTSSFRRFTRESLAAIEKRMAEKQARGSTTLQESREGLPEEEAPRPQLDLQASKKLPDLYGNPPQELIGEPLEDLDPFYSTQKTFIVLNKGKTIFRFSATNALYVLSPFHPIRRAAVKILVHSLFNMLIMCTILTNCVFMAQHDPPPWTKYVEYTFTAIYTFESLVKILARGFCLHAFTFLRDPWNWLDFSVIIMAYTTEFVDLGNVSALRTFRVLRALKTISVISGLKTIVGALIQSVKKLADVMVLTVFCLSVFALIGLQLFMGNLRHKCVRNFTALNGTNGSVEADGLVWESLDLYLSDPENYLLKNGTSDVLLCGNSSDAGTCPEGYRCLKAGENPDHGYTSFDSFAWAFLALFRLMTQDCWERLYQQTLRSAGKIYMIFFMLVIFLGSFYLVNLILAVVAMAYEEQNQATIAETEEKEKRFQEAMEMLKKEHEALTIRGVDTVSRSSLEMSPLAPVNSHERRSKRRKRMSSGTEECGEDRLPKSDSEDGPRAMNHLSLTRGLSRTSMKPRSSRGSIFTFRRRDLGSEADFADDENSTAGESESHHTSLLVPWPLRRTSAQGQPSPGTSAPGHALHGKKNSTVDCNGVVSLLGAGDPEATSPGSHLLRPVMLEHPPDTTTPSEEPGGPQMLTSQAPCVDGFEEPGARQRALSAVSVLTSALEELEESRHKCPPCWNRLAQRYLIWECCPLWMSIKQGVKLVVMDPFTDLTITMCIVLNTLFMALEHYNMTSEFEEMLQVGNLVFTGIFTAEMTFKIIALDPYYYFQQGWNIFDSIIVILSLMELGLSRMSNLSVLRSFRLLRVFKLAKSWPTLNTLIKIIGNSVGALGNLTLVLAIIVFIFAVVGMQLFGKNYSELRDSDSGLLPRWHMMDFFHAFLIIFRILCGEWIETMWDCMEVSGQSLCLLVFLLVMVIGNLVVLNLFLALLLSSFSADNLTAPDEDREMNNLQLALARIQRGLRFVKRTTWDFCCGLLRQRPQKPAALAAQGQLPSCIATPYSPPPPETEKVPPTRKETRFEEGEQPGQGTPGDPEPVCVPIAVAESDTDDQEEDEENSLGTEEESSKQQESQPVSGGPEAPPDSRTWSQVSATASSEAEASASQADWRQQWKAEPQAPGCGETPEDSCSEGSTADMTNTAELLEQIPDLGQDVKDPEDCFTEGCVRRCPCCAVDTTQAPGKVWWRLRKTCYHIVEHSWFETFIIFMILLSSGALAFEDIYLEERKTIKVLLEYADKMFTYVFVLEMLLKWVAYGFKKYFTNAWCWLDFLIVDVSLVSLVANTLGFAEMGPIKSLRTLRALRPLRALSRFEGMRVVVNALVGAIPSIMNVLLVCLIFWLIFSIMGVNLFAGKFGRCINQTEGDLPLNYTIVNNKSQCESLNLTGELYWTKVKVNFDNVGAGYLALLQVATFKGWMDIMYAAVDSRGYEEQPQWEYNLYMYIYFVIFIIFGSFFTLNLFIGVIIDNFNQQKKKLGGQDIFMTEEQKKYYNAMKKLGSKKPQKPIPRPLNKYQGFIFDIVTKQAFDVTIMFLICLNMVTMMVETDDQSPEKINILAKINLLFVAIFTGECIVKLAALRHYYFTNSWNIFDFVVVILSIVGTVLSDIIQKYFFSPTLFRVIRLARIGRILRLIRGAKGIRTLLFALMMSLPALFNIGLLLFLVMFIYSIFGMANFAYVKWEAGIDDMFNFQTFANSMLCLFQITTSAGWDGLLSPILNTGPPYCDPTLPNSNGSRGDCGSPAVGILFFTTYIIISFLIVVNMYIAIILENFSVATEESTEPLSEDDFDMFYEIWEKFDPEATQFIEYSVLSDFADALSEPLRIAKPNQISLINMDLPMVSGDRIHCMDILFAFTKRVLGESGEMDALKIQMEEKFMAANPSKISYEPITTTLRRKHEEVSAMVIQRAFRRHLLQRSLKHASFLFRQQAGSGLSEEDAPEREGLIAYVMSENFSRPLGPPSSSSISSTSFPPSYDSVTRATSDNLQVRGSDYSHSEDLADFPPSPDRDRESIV

SMILES	Late INa % blk (1 μM test cmpd) [%]
CC(C)(C)OC(=O)CN1C(=O)CCc2cc(-c3ccc(F)cc3)ccc21 [Compound 33, tert-butyl [6-(4-fluorophenyl)-2-oxo-3,4-dihydroquinolin-1(2H)-yl]acetate]	38.1
CC(C)(C)OC(=O)CN1C(=O)CCc2cc(-c3ccc(F)cc3F)ccc21 [Compound 30, tert-butyl [6-(2,4-difluorophenyl)-2-oxo-3,4-dihydroquinolin-1(2H)-yl]acetate]	47.9
CCOC(=O)CN1C(=O)CCc2cc(-c3cccc(OC(F)(F)F)c3)ccc21 [Compound 24, ethyl {2-oxo-6-[3-(trifluoromethoxy)phenyl]-3,4-dihydroquinolin-1(2H)-yl}acetate]	44

same assay, conditions: 10 μM test compound; HEK293 cells expressing hNav1.5; late INa generated with 10 μM Tefluthrin (some experiments 50 nM ATX II)

SMILES	Late INa % blk (10 μM test cmpd) [%]
CC(C)(C)OC(=O)CN1C(=O)CCc2cc(-c3ccc(C(F)(F)F)cc3)ccc21 [Compound 45, tert-butyl {2-oxo-6-[4-(trifluoromethyl)phenyl]-3,4-dihydroquinolin-1(2H)-yl}acetate]	64

same assay, conditions: HEK293, 10 μM test compound; HEK293 cells expressing hNav1.5; late INa generated with 10 μM Tefluthrin (some experiments 50 nM ATX II); read-out: Late INa % blk (10 μM test cmpd)

SMILES	inhibition at 10 µM [%]
O=C1CCc2cc(-c3ccc(C(F)(F)F)cc3)ccc2N1 [Compound 9, 6-[4-(trifluoromethyl)phenyl]-3,4-dihydroquinolin-2(1H)-one]	62
O=C1CCc2cc(-c3ccc(Oc4ccccc4)cc3)ccc2N1 [Compound 38, 6-(4-phenoxyphenyl)-3,4-dihydroquinolin-2(1H)-one]	53
O=C(O)CN1C(=O)CCc2cc(-c3ccc(C(F)(F)F)c(F)c3)ccc21 [Compound 74, 2-(6-(3-fluoro-4-(trifluoromethyl)phenyl)-2-oxo-3,4-dihydroquinolin-1(2H)-yl)acetic acid]	20
O=C1CCc2cc(-c3ccc(F)cc3F)ccc2N1CCO [Compound 16, 6-(2,4-difluorophenyl)-1-(2-hydroxyethyl)-3,4-dihydroquinolin-2(1H)-one]	24
O=C1CCc2cc(-c3ccc(F)cc3F)ccc2N1 [Compound 11, 6-(2,4-difluorophenyl)-3,4-dihydroquinolin-2(1H)-one]	54
O=C(O)CN1C(=O)CCc2cc(-c3cccc(F)c3)ccc21 [Compound 59, [6-(3-fluorophenyl)-2-oxo-3,4-dihydroquinolin-1(2H)-yl]acetic acid]	10
CC(C)(C)OC(=O)CN1C(=O)CCc2cc(-c3ccc(Cl)cc3)ccc21 [Compound 40, tert-butyl [6-(4-chlorophenyl)-2-oxo-3,4-dihydroquinolin-1(2H)-yl]acetate]	64
CC(C)(C)OC(=O)CN1C(=O)CCc2cc(-c3ccc(F)cc3)ccc21 [Compound 33, tert-butyl [6-(4-fluorophenyl)-2-oxo-3,4-dihydroquinolin-1(2H)-yl]acetate]	77
COc1ccccc1OCC(O)CN1C(=O)CCc2cc(-c3ccc(F)cc3F)ccc21 (stereo not drawn) [Compound 88, 6-(2,4-difluorophenyl)-1-(2-hydroxy-3-(2-methoxyphenoxy)propyl)-3,4-dihydroquinolin-2(1H)-one]	40
CC(C)(C)OC(=O)CN1C(=O)CCc2cc(-c3ccc(F)cc3F)ccc21 [Compound 30, tert-butyl [6-(2,4-difluorophenyl)-2-oxo-3,4-dihydroquinolin-1(2H)-yl]acetate]	86
CCOC(=O)c1cccc(CN2C(=O)CCc3cc(-c4ccc(C(F)(F)F)cc4)ccc32)c1 [Compound 91, ethyl 3-((2-oxo-6-(4-(trifluoromethyl)phenyl)-3,4-dihydroquinolin-1(2H)-yl)methyl)benzoate]	31
COc1c(-c2ccc(Cl)cc2)cc2c(c1-c1ccc(Cl)cc1)N(CC(=O)O)C(=O)CC2 [Compound 81, 2-(6,8-bis(4-chlorophenyl)-7-methoxy-2-oxo-3,4-dihydroquinolin-1(2H)-yl)acetic acid]	30
N#CCN1C(=O)CCc2cc(-c3ccc(C(F)(F)F)cc3)ccc21 [Compound 90, 2-(2-oxo-6-(4-(trifluoromethyl)phenyl)-3,4-dihydroquinolin-1(2H)-yl)acetonitrile]	22
CC(C)(C)OC(=O)CN1C(=O)CCc2cc(-c3ccc(OC(F)(F)F)cc3)ccc21 [Compound 50, tert-butyl {2-oxo-6-[4-(trifluoromethoxy)phenyl]-3,4-dihydroquinolin-1(2H)-yl}acetate]	76
CCOC(=O)CN1C(=O)CCc2cc(-c3cccc(OC(F)(F)F)c3)ccc21 [Compound 24, ethyl {2-oxo-6-[3-(trifluoromethoxy)phenyl]-3,4-dihydroquinolin-1(2H)-yl}acetate]	74
NC(=O)CN1C(=O)CCc2cc(-c3ccc(C(F)(F)F)cc3)ccc21 [Compound 56, 2-{2-oxo-6-[4-(trifluoromethyl)phenyl]-3,4-dihydroquinolin-1(2H)-yl}acetamide]	14
CC(C)(C)OC(=O)CN1C(=O)CCc2cc(-c3ccc(Cl)c(C(F)(F)F)c3)ccc21 [Compound 67, tert-butyl {6-[4-chloro-3-(trifluoromethyl)phenyl]-2-oxo-3,4-dihydroquinolin-1(2H)-yl}acetate]	74
CCOC(=O)CN1C(=O)CCc2cc(-c3ccc(F)c(F)c3)ccc21 [Compound 23, ethyl [6-(3,4-difluorophenyl)-2-oxo-3,4-dihydroquinolin-1(2H)-yl]acetate]	33
O=C1CCc2cc(-c3cccc(C(F)(F)F)c3)ccc2N1 [Compound 13, 6-[3-(trifluoromethyl)phenyl]-3,4-dihydroquinolin-2(1H)-one]	70
O=C1CCc2cc(-c3ccc(F)cc3F)ccc2N1CC(F)(F)F [Compound 28, 6-(2,4-difluorophenyl)-1-(2,2,2-trifluoroethyl)-3,4-dihydroquinolin-2(1H)-one]	18
CC1(C)CC(=O)Nc2ccc(-c3ccc(C(F)(F)F)cc3)cc21 [Compound 42, 4,4-dimethyl-6-[4-(trifluoromethyl)phenyl]-3,4-dihydroquinolin-2(1H)-one]	19
COc1cc2c(cc1-c1ccc(Cl)cc1)CCC(=O)N2 [Compound 77, 6-(4-chlorophenyl)-7-methoxy-3,4-dihydroquinolin-2(1H)-one]	72
O=C(O)c1ccc(CN2C(=O)CCc3cc(-c4ccc(C(F)(F)F)cc4)ccc32)cc1 [Compound 86, 4-((2-oxo-6-(4-(trifluoromethyl)phenyl)-3,4-dihydroquinolin-1(2H)-yl)methyl)benzoic acid]	13
O=C(O)CN1C(=O)CCc2cc(-c3ccc(OC(F)(F)F)cc3)ccc21 [Compound 51, {2-oxo-6-[4-(trifluoromethoxy)phenyl]-3,4-dihydroquinolin-1(2H)-yl}acetic acid]	14
NC(=O)CN1C(=O)CCc2cc(-c3ccc(F)cc3F)ccc21 [Compound 55, 2-[6-(2,4-difluorophenyl)-2-oxo-3,4-dihydroquinolin-1(2H)-yl]acetamide]	14
CCOC(=O)CN1C(=O)CCc2cc(-c3ccc(F)cc3F)ccc21 [Compound 22, ethyl [6-(2,4-difluorophenyl)-2-oxo-3,4-dihydroquinolin-1(2H)-yl]acetate]	67
N#Cc1ccc(-c2ccc3c(c2)CCC(=O)N3)cc1 [Compound 5, 4-(2-oxo-1,2,3,4-tetrahydroquinolin-6-yl)benzonitrile]	30
COc1cc2c(cc1-c1ccc(Cl)cc1)CCC(=O)N2CC(=O)O [Compound 80, 2-(6-(4-chlorophenyl)-7-methoxy-2-oxo-3,4-dihydroquinolin-1(2H)-yl)acetic acid]	17
O=C(CN1C(=O)CCc2cc(-c3ccc(C(F)(F)F)cc3)ccc21)N1CCOCC1 [Compound 32, 1-[2-(morpholin-4-yl)-2-oxoethyl]-6-[4-(trifluoromethyl)phenyl]-3,4-dihydroquinolin-2(1H)-one]	27

— patent US8664379B2, “Fused heterocyclic compounds as ion channel modulators” (Gilead Sciences, Inc., priority 2008, dated 2014)
